According to patent US5072032A, “Preparation and use of thiophosphonates and thio-analogues of phosphonoformic acid” (priority 1989, dated 1991):
Read-outs that look alike come from different tables or passages of the source.

Assays:
[1] = target: T1, human DNA polymerase α (Homo sapiens, UniProt P09884); experiment: Human DNA polymerase inhibition, alpha; type: biochemical; settings: for remaining activity at 100 µM: read-out: % Control at 100 μM ± S.D.
T1 construct: Mammalian DNA polymerases alpha, beta, gamma, and delta were partially purified from K562 celles; endogenous in cells; host or cells: K562 (chronic myelogenous leukemia tissue culture line)
Source text: (§1) Viral DNA polymerases (HSV-1, HSV-2, EBV) were purified by previously published methods (Derce, D. K. F. Bastow, and Y. C. Cheng (1982) J. Boil. Chem. 257:10251-10260; Ostrander, M., and Y. C. Cheng (1980) Biochim. Biophys. Acta 609:232-245; Tan, R. S., A. Datta. and Y. C. Cheng (1982) J. Virol. 44:893-899). These procedures generally included sequential chromatography on DEAE-cellulose. HIV reverse transcriptase was purified by antibody affinity column chromatography as descrbed (Starnes. M. C. and Y. C. Cheng (1989) J. Biol. Chem. 264:7073-7077). The purified enzymes were dialyzed against and stored in 50 mM Tris-HCl (pH 7.5) containing 1 mM each of DTT, EDTA and PMSF plus 30% glycerol. Mammalian DNA polymerases alpha, beta, gamma, and delta were partially purified from K562 celles (chronic myelogenous leukemia tissue culture line). Briefly, washed cell pellets were extracted and passed throgh DEAE-cellulose in the presence of 300 mM KPO4 (pH 7.5) as previously described (Starnes, M. C., and Y. C. Cheng (1987) J. Biol. Chem 282:988-981) to remove DNA. The column flow-through fractions were dialyzed against buffer which contained 50 mM Tris-HCl (pH 7.5), and fractionated on a single-stranded DNA-cellulose column with a 0-1M KCl gradient.
(§2) In accordance with the teaching of the present invention similar enzyme inhibition assays were also conducted with respect to mammalian enzymes, more particularly, human DNA polymerase.

[2] = target: T2, HSV-1 DNA polymerase (Human herpesvirus 1, UniProt P04293); experiment: Viral polymerase inhibition, HSV-1; type: biochemical
T2 construct: made in house
Source text: as §1, with “gradient. […]” for “gradient.”

[3] = target: T3, HIV-1 reverse transcriptase (Human immunodeficiency virus type 1 group M subtype B, UniProt P04585); experiment: HIV-1 reverse transcriptase assay (viral polymerase inhibition); type: biochemical
T3 construct: made in house
Method: Standard assays were run at 37° C. and contained: 50 mM Tris, pH b 8.0, 0.5 mM DTT, 8 mM MgCl2, 100 μg/mL BSA, 150 μg/mL gapped calf thymus DNA, 100 μM each dATP, dCTP, dGTP, 10 .parallel.M [^3 H]-dTTP, and 1-5 .parallel.L enzyme in a final volume of 50 .parallel.L. Modified assays for pH dependence inhibition studies with PFA (1) and α--oxo phosphonates (4 and 5) contained 50 mM Hepes, pH 8.2-6.5, 8 mM MgCl2, 100 mM KCl, 100 μg/ml BSA, 0.5 A260 units/ml of poly(rA).(dT)10, 100 μM [^3 H]dTTP, and 1.5 .parallel.L enzyme in a final volume of 50 μL. Samples were processed as described above.

[4] = tested on: HSV-1; settings: reported by Hutchinson et al.; cited from earlier work
[5] = target: T4, human DNA polymerase γ (Homo sapiens, UniProt P54098); experiment: Human DNA polymerase inhibition, gamma; type: biochemical; settings: for remaining activity at 100 µM: read-out: % Control at 100 μM ± S.D.
T4 construct: Mammalian DNA polymerases alpha, beta, gamma, and delta were partially purified from K562 celles; endogenous in cells; host or cells: K562 (chronic myelogenous leukemia tissue culture line)
T4 sequence (P54098 26-1239 limits assumed): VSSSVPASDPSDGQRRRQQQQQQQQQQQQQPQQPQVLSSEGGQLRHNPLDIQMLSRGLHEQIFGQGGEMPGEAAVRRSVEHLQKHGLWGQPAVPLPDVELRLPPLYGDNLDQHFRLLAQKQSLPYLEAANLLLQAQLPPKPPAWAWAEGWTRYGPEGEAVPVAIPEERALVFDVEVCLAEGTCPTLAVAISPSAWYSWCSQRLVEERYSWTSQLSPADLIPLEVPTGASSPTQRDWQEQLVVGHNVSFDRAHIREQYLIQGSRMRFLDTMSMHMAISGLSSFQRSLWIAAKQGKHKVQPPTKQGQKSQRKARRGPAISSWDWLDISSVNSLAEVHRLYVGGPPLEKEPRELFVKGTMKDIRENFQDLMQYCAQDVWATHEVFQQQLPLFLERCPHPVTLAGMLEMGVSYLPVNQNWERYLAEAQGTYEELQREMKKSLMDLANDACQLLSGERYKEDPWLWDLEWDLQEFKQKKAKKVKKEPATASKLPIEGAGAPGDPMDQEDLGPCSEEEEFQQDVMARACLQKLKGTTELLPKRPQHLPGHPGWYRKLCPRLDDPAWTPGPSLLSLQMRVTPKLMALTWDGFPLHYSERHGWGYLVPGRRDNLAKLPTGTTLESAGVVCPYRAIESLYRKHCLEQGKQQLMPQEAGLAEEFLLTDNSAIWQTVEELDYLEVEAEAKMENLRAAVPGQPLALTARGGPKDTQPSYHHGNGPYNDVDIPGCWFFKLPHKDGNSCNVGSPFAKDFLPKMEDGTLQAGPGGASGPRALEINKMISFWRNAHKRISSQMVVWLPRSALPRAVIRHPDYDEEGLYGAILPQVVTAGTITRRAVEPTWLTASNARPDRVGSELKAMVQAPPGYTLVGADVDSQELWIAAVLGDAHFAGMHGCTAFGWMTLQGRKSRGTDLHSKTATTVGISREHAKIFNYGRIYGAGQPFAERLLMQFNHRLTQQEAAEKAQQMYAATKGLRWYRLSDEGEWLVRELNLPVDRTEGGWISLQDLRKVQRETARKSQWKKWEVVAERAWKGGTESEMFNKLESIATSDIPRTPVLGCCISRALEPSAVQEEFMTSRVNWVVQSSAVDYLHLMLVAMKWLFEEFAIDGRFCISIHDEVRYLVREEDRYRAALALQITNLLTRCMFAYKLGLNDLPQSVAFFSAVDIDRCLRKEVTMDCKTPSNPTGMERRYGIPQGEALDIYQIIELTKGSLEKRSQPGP
T4 sequence (Q9UHN1 25-485 partner limits assumed): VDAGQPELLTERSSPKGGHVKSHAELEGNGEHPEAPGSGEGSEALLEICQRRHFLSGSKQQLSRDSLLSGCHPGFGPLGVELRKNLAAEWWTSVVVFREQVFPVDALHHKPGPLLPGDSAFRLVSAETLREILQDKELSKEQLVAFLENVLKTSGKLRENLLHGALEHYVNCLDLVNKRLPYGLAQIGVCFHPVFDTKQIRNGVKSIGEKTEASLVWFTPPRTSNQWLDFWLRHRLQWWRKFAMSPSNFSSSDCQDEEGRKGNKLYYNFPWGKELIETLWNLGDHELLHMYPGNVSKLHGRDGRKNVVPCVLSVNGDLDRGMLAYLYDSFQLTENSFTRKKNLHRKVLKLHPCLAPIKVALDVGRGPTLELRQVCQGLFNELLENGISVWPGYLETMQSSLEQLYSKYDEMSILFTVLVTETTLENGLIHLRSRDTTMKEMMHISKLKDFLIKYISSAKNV
Source text: as §1, §2

T1 sequence (P09884 whole entry): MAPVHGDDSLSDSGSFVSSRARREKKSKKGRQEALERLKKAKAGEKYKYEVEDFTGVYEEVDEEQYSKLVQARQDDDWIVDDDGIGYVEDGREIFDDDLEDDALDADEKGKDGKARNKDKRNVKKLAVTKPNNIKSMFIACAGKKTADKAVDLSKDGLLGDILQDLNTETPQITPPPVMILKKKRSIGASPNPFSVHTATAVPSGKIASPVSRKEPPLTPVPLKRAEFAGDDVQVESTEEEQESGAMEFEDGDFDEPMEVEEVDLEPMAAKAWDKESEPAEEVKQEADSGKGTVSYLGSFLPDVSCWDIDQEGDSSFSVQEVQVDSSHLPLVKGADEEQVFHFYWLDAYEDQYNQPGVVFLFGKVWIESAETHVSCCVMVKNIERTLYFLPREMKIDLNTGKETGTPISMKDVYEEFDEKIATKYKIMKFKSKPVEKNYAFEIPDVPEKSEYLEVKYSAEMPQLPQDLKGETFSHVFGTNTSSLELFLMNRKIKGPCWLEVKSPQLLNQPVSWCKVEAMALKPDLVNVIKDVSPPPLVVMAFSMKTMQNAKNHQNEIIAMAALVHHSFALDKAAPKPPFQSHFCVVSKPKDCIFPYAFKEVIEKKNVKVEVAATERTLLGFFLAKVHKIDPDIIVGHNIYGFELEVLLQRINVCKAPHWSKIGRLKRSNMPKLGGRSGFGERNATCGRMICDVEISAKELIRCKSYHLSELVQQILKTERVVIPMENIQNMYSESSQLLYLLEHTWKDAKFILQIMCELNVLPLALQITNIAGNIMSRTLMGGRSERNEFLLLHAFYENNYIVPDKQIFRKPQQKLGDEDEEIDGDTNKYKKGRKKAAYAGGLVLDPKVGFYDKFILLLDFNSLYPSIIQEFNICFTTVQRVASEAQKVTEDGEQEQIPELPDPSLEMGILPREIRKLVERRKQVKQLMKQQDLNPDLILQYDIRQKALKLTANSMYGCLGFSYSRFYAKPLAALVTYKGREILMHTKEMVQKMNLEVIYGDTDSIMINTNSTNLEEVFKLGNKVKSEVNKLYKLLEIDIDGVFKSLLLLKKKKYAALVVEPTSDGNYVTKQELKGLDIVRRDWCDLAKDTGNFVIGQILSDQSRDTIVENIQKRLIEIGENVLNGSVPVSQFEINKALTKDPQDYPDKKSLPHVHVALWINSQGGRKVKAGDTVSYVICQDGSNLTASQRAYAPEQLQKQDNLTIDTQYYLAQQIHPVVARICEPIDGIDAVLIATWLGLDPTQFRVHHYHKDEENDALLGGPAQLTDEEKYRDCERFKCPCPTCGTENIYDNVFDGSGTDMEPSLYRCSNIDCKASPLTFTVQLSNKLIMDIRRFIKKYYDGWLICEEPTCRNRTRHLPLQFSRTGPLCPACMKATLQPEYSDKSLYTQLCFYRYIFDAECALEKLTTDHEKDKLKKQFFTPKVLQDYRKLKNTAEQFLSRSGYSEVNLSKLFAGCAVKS
T1 sequence (Q14181 whole entry partner): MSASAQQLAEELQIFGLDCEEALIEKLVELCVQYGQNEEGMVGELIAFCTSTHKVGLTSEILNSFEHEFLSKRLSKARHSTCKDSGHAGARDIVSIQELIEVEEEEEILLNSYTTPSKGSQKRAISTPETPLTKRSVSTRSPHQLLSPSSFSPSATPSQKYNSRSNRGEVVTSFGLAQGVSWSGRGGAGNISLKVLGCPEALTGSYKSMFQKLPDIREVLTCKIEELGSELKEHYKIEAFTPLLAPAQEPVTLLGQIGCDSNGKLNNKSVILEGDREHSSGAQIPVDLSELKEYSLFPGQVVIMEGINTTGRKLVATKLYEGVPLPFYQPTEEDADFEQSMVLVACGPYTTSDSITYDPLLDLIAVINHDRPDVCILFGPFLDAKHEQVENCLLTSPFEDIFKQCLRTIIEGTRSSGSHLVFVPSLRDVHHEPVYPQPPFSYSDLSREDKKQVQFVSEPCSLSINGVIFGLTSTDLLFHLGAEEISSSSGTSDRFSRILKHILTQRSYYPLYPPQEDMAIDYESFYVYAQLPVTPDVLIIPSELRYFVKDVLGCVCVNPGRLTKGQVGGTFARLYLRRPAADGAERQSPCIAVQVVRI
T1 sequence (P49642 whole entry partner): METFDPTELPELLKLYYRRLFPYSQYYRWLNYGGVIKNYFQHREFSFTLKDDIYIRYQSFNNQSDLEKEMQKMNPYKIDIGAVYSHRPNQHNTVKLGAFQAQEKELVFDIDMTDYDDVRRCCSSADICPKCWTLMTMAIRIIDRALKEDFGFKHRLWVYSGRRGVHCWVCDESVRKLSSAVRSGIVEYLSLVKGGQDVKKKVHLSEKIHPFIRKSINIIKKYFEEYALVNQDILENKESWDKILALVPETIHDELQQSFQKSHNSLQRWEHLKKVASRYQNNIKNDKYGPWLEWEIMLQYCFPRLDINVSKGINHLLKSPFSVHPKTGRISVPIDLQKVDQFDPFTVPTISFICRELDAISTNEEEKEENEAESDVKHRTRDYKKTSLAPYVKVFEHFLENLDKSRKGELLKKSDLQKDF
T1 sequence (P49643 whole entry partner): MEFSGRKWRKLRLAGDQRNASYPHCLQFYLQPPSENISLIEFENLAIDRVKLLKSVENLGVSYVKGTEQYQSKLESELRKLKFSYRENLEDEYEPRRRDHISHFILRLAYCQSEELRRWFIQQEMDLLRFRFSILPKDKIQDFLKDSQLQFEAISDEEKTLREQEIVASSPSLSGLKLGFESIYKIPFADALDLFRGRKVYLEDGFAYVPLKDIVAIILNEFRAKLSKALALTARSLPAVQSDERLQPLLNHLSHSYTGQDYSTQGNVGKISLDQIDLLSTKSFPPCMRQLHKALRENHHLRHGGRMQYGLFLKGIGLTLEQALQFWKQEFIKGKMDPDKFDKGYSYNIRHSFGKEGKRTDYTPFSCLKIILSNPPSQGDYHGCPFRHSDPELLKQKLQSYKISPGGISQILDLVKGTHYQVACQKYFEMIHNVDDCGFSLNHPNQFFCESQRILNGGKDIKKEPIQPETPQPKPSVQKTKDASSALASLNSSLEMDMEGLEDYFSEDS
T2 sequence (P04293 whole entry): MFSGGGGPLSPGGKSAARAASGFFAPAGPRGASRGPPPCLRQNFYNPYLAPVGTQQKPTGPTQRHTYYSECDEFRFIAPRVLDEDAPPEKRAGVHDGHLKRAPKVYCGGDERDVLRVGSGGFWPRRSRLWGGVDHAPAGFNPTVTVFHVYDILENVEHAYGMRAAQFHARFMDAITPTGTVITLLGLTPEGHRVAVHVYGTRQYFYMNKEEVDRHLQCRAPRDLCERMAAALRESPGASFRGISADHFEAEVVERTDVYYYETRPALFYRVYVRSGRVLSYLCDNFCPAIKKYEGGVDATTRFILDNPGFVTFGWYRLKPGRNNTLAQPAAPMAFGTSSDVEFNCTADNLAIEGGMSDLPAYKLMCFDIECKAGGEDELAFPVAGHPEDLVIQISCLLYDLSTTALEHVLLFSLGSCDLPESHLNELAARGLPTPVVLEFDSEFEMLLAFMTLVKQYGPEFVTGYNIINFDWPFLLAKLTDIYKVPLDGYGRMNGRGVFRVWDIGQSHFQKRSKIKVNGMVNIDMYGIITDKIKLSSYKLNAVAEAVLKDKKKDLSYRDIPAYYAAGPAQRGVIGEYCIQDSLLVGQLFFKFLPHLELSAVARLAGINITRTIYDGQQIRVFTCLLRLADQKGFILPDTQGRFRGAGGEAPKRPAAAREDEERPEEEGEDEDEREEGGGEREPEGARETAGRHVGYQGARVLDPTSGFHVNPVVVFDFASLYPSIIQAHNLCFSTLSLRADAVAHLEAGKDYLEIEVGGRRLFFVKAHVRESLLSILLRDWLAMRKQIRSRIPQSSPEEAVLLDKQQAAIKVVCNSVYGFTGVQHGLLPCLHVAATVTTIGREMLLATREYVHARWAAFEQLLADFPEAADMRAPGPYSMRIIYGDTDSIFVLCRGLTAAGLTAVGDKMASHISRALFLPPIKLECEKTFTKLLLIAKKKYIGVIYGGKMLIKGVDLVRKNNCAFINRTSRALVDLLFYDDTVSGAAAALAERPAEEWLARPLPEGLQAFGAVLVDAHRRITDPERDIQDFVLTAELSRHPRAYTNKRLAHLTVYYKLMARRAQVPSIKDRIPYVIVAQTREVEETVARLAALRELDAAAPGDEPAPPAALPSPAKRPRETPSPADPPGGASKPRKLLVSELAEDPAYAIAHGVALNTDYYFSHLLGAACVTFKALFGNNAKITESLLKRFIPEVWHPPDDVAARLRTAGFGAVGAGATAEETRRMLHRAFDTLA

Compound	IC50 [1] [µM]	toxicity to the human enzyme relative to PFA (therapeutic index) ([1]; HIV enzyme and human enzyme, Tables I and II)	fold less active against the human enzyme than against the HIV enzyme (therapeutic index) ([1]; human DNA polymerase vs HIV enzyme of Table I)	remaining activity at 100 µM [1] [%]	IC50 [2] [µM]	IC50 [3] [µM]	relative ID50 values with respect to HSV-1 [4]	IC50 [5] [µM]	remaining activity at 100 µM [5] [%]	remaining activity at 100 µM ([1]; Pol α, 100 μM, "activated" DNA) [%]	IC50 ([1]; Pol α, "activated" DNA, read-out: ID50 (the source's name)) [µM]	IC50 ([2]; HSV-1, "activated" DNA, read-out: ID50 (the source's name)) [µM]	remaining activity at 100 µM ([5]; Pol γ, 100 μM, "activated" DNA) [%]	IC50 ([5]; Pol γ, "activated" DNA, read-out: ID50 (the source's name)) [µM]
O=C(O)P(O)(O)=S [TPFA, thiophosphonoformic acid]	> 100	at a minimum, three times less toxic	greater than 100 fold	72 ± 3	11.8	1	9	> 100	75 ± 3	–	–	–	–	–
O=C(O)P(=O)(O)O [PFA, phosphonoformic acid]	–	–	–	–	–	0.7	12	–	–	16 ± 2	31	0.7	55 ± 5	> 100
